The source of these data is patent publication US20070155673A1, “USE OF BVDU FOR INHIBITING THE GROWTH OF HYPERPROLIFERATIVE CELLS” (Celmed Oncology (USA), Inc., priority 1999, published 2007).

One data set deals with TS HT1080 #12. As to the kind of experiment: Cyquant and crystal violet cytotoxicity. Type of data set: cell-based, human. Particulars: for IC50: TS HT1080 #12, tumor - fibrosarcoma, high TS transfectant, 72 hour incubation; for normal/tumor IC50 ratio: normal IC50 = average of CCD18co and Det551. The protocol:
(§1) Cvquant and Crystal Violet Cytotoxicity Exponentially growing cells were transferred at a density of 1.0-4.0×10^3 cells per well to a 96-well tissue culture plate in growth medium (RPMI1640+10% FBS+antibiotics). Cells were allowed to attach for 24 hours in standard culture conditions (37° C., 5% CO2, 95% humidity). Experimental compounds were then applied in duplicate half log serial dilutions. After additional 72 hour incubation, surviving cells were stained with crystal violet (adherent cells) or Cyquant (semi or non—adherent cells). Absorbence or fluorescence, respectively, was monitored. IC50 values were derived from sigmoid curves fit according to the Hill inhibitory Emax model.
Cell transfection. HT1080 cells were grown in RPMI1640 medium supplemented with 10% FBS, and transfected with TS expression vector. 48 hours later, transfected cells were trypsinized and replated in culture medium containing 750 μg/ml G418. After selection with G418 for two weeks, surviving cells were cloned. Clones with different TS levels were selected based on Western blot analysis, and expanded into cell lines. The stable HT1080 cells transfected with pcDNA3.1(−) only were used as control.
(§2) The selectivity of a given antitumor agent can be assessed by comparing the IC50 for a tumor cell line to the IC50 of a normal cell strain growing under the same conditions, determined and Cyquant staining for non-adherent cells, and crystal violet staining for adherent cells. The selectivity is given here as the ratio of normal cell IC50 to tumor cell IC50. In this case, normal cell IC50 is defined as the average of the value for CCD18co and Det551 to allow for direct comparison of the established cancer drug 5-FU with BVdU.

The subject of another data set is MCF7. Nature of the data set: Cyquant and crystal violet cytotoxicity. Type of data set: cell-based. The settings on record: for IC50: MCF7, tumor - breast, parental control, 72 hour incubation; for normal/tumor IC50 ratio: normal IC50 = average of CCD18co and Det551. The protocol: as §1, §2
The next data set relates to SKBR3 V. Nature of the data set: Cyquant and crystal violet cytotoxicity. The settings on record: vector control, low TS, 72 hour incubation. The data set is classed as cell-based. The procedure:
as §1, §2

In another data set the test system is SW527P. As to the kind of experiment: Cyquant and crystal violet cytotoxicity. The data set is classed as cell-based. The settings on record: tumor - breast, parental control, 72 hour incubation. The procedure: as §1, §2
The subject of a further data set is Det 551. Nature of the data set: Cyquant and crystal violet cytotoxicity. Type of data set: cell-based. The settings on record: for IC50: Det 551, normal embryonic skin, 72 hour incubation. The procedure: as §1, §2
A further data set has as its system H630-R10. As to the kind of experiment: Cyquant and crystal violet cytotoxicity. The data set is classed as cell-based. The settings on record: for IC50: H630-R10, tumor - colon, 5-FU resistant, high TS, 72 hour incubation; for normal/tumor IC50 ratio: normal IC50 = average of CCD18co and Det551. The procedure: as §1, §2
The test system of a further data set is SW527TDX. As to the kind of experiment: Cyquant and crystal violet cytotoxicity. The data set is classed as cell-based. The settings on record: for normal/tumor IC50 ratio: normal IC50 = average of CCD18co and Det551; for IC50: tumor - breast, TDX resistant, high TS, 72 hour incubation. The protocol:
as §1, §2

Data set [1] concerns MCF7 TDX. As to the kind of experiment: Cyquant and crystal violet cytotoxicity. The settings on record: for normal/tumor IC50 ratio: normal IC50 = average of CCD18co and Det551; for IC50: tumor - breast, TDX resistant, high TS, 72 hour incubation. Type of data set: cell-based. The protocol: as §1, §2
The test system of another data set is SKBR3 #52. As to the kind of experiment: Cyquant and crystal violet cytotoxicity. Type of data set: cell-based. Particulars: for IC50: SKBR3 #52, tumor - breast, high TS transfectant, 72 hour incubation; for normal/tumor IC50 ratio: normal IC50 = average of CCD18co and Det551. The protocol:
as §1, §2

Another data set relates to CCD18co. Nature of the data set: Cyquant and crystal violet cytotoxicity. The data set is classed as cell-based. The settings on record: for IC50: CCD18co, normal colon epithelium, 72 hour incubation. The protocol:
as §1, §2

For another data set, the system named is TKC HT1080 #22. As to the kind of experiment: Sensitivity of thymidine kinase transfected HT1080 cell lines to BVdU. The data set is classed as cell-based. Particulars: Homo sapiens, HT-1080; TKC HT1080 #22, TK protein level 400 units. The source says: (§3) Cell lines that overexpress human thymidine kinase (TK) are also more sensitive to BVdU, providing another criterion for identification of tumor susceptibility to BVdU.

In a further data set the test system is PC HT1080. The data set is described as above. Type of data set: cell-based. Particulars: Homo sapiens, HT-1080; PC HT1080, TK protein level 100 units.
From the text: as §3

The subject of another data set is TKC HT1080 #5. The data set is described as above. The data set is classed as cell-based. Particulars: Homo sapiens, HT-1080; TKC HT1080 #5, TK protein level 200 units.
From the text: as §3

Data set [2] concerns MCF7 TDX. As to the kind of experiment: alamarBlue cytotoxicity assay. The data set is classed as cell-based. Particulars: for IC50: alamarBlue. The protocol: (§4) alamarBlue cytotoxicity assay Tumor cells growing exponentially were transferred to 384 well flat bottom tissue culture plates. H630 R10 were plated at a density of 500 cells per well and MCF7 TDX at 250 cells/well in 25 μL of complete medium (RPMI 1640+10% fetal bovine serum+antibiotics/antimyotics). After 24 hours (day 0), 25 μL of complete medium containing the compounds (NB1011 or BVdU) over the dose range of 10^−3 to 10^−10 M were added in triplicate. Drug exposure time was 120 hours (day 5), after which growth inhibition was assayed. The redox indicator alamarBlue was added to each well at 10% (v/v). After 1-hour incubation at room temperature, fluorescence was monitored at 536 nm excitation and 595 nm emission. Concentration versus relative fluorescence units (RFU) was plotted, and sigmoid curves were fit using the Hill equation. IC50, indicated by the inflection point of the curve, is the concentration at which growth is inhibited by 50%.
(§5) H630 R10 is a colon cancer tumor cell line selected for resistance to 5-FU, and overexpresses thymidylate synthase protein approximately 20-fold. MCF7 TDX is a breast tumor cell line selected with Tomudex, and overexpresses thymidylate synthase to approximately the same extent.
A general note: Resazurin is reduced to fluorescent resorufin, in cell work by metabolically active cells.

The test system of data set [3] is H630 R10. As to the kind of experiment: alamarBlue cytotoxicity assay. Type of data set: cell-based. The settings on record: for IC50: alamarBlue, drug exposure 120 hours, 5-FU resistant colon tumor cell line. The procedure: as §4, §5
In data set [4] the test system is H630 R10. Particulars: previously shown; cited from earlier work.

Broadly, the IC50 is the concentration needed to halve the response being measured. In the case of `O=c1[nH]cc(F)c(=O)[nH]1` [5-FU, reference compound], the IC50 in the data set with TS HT1080 #12 was 3.5 ± 0.2 µM; in the data set on MCF7, 8.8 ± 5.9 µM; in the data set with SKBR3 V (tumor - breast) it was 7.4 ± 2.4 µM; with SW527P, 9.1 ± 1.3 µM; in the data set on Det 551, 3.1 ± 0.5 µM; with H630-R10 it was 143 ± 5.9 µM. The IC50 came out at 20.4 ± 9.9 µM with SW527TDX, 6.7 ± 2 µM in the data set with MCF7 TDX [1], 9.1 ± 1.6 µM in the data set with SKBR3 #52 and 1.4 ± 0.4 µM in the data set on CCD18co. Further, the “normal/tumor IC50 ratio” value in the data set on TS HT1080 #12 (TS HT1080 #12) is reported as 0.64; in the data set with MCF7 (MCF7) it was 0.25; in the data set with H630-R10 (H630-R10) it was 0.15; in the data set on SW527TDX, 0.11; in the data set on MCF7 TDX [1], 0.33; in the data set with SKBR3 #52 (SKBR3 #52) it was 0.24.
With `O=c1[nH]c(=O)n([C@H]2C[C@H](O)[C@@H](CO)O2)cc1/C=C/Br` [BVdU, (E)-5-(2-bromovinyl)-2′-deoxyuridine], the IC50 with TKC HT1080 #22 amounted to 162 µM; with PC HT1080, 303 µM; with TKC HT1080 #5, 275 µM; in the data set with MCF7 TDX [2] (Homo sapiens, MCF7, Tomudex resistant breast cancer cell line), 0.005 µM; in the data set on MCF7 TDX [2] (Homo sapiens, MCF7, drug exposure 120 hours, Tomudex resistant breast tumor cell line), 0.005 µM; with H630 R10 [3] (Homo sapiens, NCI-H630), 303 µM. Moreover, the IC50 in the data set with TS HT1080 #12 (Homo sapiens, HT-1080) is 5.7 ± 1.8 µM; in the data set with MCF7 (Homo sapiens), 1250 µM; in the data set with SKBR3 V (Homo sapiens, SK-BR-3, tumor - breast), above 1000 µM; in the data set on SW527P, above 1000 µM; in the data set on Det 551, 2190 ± 682 µM; in the data set with H630-R10, 561 ± 157 µM. Moreover, the IC50 with SW527TDX came out at 6.5 µM; in the data set on MCF7 TDX [1] (Homo sapiens) it was 0.6 ± 0.5 µM; in the data set with SKBR3 #52 (Homo sapiens, SK-BR-3), 8.3 µM; in the data set on CCD18co (Homo sapiens, CCD-18Co) it was 4820 ± 128 µM. Moreover, the “fold more active than NB1011” value with MCF7 TDX [2] (MCF7 TDX cells, from IC50) is given as around 25 fold. Also, the “fold less active than NB1011” value in the data set with H630 R10 [3] (H630R10 cells, from IC50) was around 6 fold. In addition, the “times the 5-FU normal/tumor ratio” value with TS HT1080 #12 (TS HT1080 #12) is 961 times; in the data set on H630-R10 (H630-R10) it was 42 times; in the data set with SW527TDX, 5,000 times; in the data set on MCF7 TDX [1] it was 18,000 times; in the data set on SKBR3 #52 (SKBR3 #52), 2,000 times. The “normal/tumor IC50 ratio” value in the data set on TS HT1080 #12 (TS HT1080 #12) was 615; in the data set with MCF7 (MCF7), 2.8; with H630-R10 (H630-R10) it was 6.3; with SW527TDX, 540; with MCF7 TDX [1], 5847; in the data set on SKBR3 #52 (SKBR3 #52) it was 423. Moreover, the “selectivity relative to 5-FU” value with MCF7 (MCF7) was “more than ten times as selective as 5-FU”. Moreover, the “anti-proliferative effect (in words)” value is reported as “not affected” with Det 551 (normal cell strain representing skin, even high concentrations) and “not affected” with CCD18co (normal cell strain representing colon, even high concentrations). Also, the “sensitivity of H630 R10 (in words)” value in the data set on H630 R10 [4] is “insensitive”.
With `C[C@H](NP(=O)(OC[C@H]1O[C@@H](n2cc(/C=C/Br)c(=O)[nH]c2=O)C[C@@H]1O)Oc1ccccc1)C(=O)O` (stereo partly drawn) [NB1011, reference compound], the IC50 in the data set with MCF7 TDX [2] (drug exposure 120 hours, Tomudex resistant breast tumor cell line) came out at 0.13 µM; in the data set on H630 R10 [3], 57 µM.
